In US20120107331A1, “GEMM RIBOSWITCHES, STRUCTURE-BASED COMPOUND DESIGN WITH GEMM RIBOSWITCHES, AND METHODS AND COMPOSITIONS FOR USE OF AND WITH GEMM RIBOSWITCHES” (YALE UNIVERSITY, priority 2009, published 2012):

Experiments:
[1] = tested on: GEMM riboswitch C92U, G20A mutant; test: Gel-shift Kd measurement, C92U, G20A double mutant RNA; type: binding, Vibrio cholerae; conditions: for Kd: gel-shift, RNA C92U, G20A, dash = no binding
Excerpt: (§1) Point mutants were cloned using the Quik Change protocol. Radiolabeled c-di-GMP was obtained enzymatically according to published procedures and purified by polyacrylamide gel electrophoresis (PAGE) (Paul, R. et al. Cell cycle-dependent dynamic localization of a bacterial response regulator with a novel di-guanylate cyclase output domain. Genes & Development 18, 715-27 (2004); Christen, M., Christen, B., Folcher, M., Schauerte, A. & Jenal, U. Identification and characterization of a cyclic di-GMP-specific phosphodiesterase and its allosteric control by GTP. J Biol Chem 280, 30829-37 (2005)). A constitutively active DGC, PleD* was expressed and purified as described and the reaction was initiated using [α-^32P]GTP as the substrate (Paul, R. et al. Cell cycle-dependent dynamic localization of a bacterial response regulator with a novel di-guanylate cyclase output domain. Genes & Development 18, 715-27 (2004)). A single band appeared as the reaction proceeded that ran slower than the starting material when purified by PAGE. Radiolabeled c-diAMP was obtained similarly, using the protein DisA and [α-^32P]ATP as the substrate. Riboswitch RNAs were folded in the presence of radiolabeled c-di-GMP or c-diAMP and folding buffer. The complex was allowed to equilibrate for 1 hour and bound and free c-di-GMP were separated by native (100 mM Tris/HEPES pH 7.5, 10 mM MgCl2, 0.1 mM EDTA) PAGE at 4° C. A STORM phosphorimager was used to scan gels and the bands were quantitated using ImageQuant. Fraction bound was graphed versus RNA concentration and fit using KaleidaGraph to obtain Kds according to the equation:
(§2) F=fraction bound; F∞=fraction bound at saturation; C=riboswitch concentration
A gel-shift assay, which directly measures c-di-GMP binding to the GEMM RNA (FIG. 3A, B), was developed in order to test biochemical predictions resulting from the GEMM riboswitch structure. Specifically, radiolabeled c-di-GMP was incubated with the riboswitch and the RNA bound ligand was separated from the free on a native polyacrylamide gel. […]

[2] = tested on: GEMM riboswitch A47U mutant (WT-110 background); test: Gel-shift Kd measurement, A47U mutant RNA; type: binding, Vibrio cholerae
Excerpt: (§3) Point mutants were cloned using the Quik Change protocol. Radiolabeled c-di-GMP was obtained enzymatically according to published procedures and purified by polyacrylamide gel electrophoresis (PAGE) (Paul, R. et al. Cell cycle-dependent dynamic localization of a bacterial response regulator with a novel di-guanylate cyclase output domain. Genes & Development 18, 715-27 (2004); Christen, M., Christen, B., Folcher, M., Schauerte, A. & Jenal, U. Identification and characterization of a cyclic di-GMP-specific phosphodiesterase and its allosteric control by GTP. J Biol Chem 280, 30829-37 (2005)). A constitutively active DGC, PleD* was expressed and purified as described and the reaction was initiated using [α-^32P]GTP as the substrate (Paul, R. et al. Cell cycle-dependent dynamic localization of a bacterial response regulator with a novel di-guanylate cyclase output domain. Genes & Development 18, 715-27 (2004)). […] A STORM phosphorimager was used to scan gels and the bands were quantitated using ImageQuant. […]
(§4) The three nucleotides directly involved in ligand recognition (G20, A47 and C92) were mutated and affinity for c-di-GMP was measured by gel shift analysis in the context of the WT-110 nucleotide background (Table 1) (Sudarsan, N. et al. Riboswitches in eubacteria sense the second messenger cyclic di-GMP. Science 321, 411-3). […]

[3] = tested on: GEMM riboswitch G20C mutant (WT-110 background); test: Gel-shift Kd measurement, G20C mutant RNA; type: binding, Vibrio cholerae
Excerpt: as §1
F=fraction bound; F∞=fraction bound at saturation; C=riboswitch concentration […]
as §4

[4] = tested on: GEMM riboswitch A47C mutant (WT-110 background); test: Gel-shift Kd measurement, A47C mutant RNA; type: binding, Vibrio cholerae
Excerpt: as §3, §4

[5] = tested on: natural GEMM sequence lacking C at position 92, C at position 93 mutated to an A; test: Binding of c-di-GMP to natural GEMM sequence with C93 mutated to A
Protocol: (§5) The three nucleotides directly involved in ligand recognition (G20, A47 and C92) were mutated and affinity for c-di-GMP was measured by gel shift analysis in the context of the WT-110 nucleotide background (Table 1) (Sudarsan, N. et al. Riboswitches in eubacteria sense the second messenger cyclic di-GMP. Science 321, 411-3). Mutational analysis supports the crystallographically observed base pair between a conserved cytidine, C92, and c-di-GMP. […] By mutating it to an A or G, this ability to base pair with the ligand is lost. The large effect that these mutations have on ligand binding confirms that C92 is making an important contact with Gβ. The minor affect seen upon mutation to a U is in a reasonable range given the potential to form a wobble pair with Gβ. A natural GEMM sequence has been identified that lacks a C at position 92, but instead has a C at position 93. This RNA can bind c-di-GMP with an affinity of approximately 1 uM.

[6] = target: GEMM riboswitch Vc2 91 (WT-91); test: Gel-shift Kd measurement, WT-91 RNA (crystallization construct with no U1A binding loop); set-up: species or system Vibrio cholerae; conditions: radiolabeled ligand, RNA WT-91, dash = no binding seen
Excerpt: as §3, with “(2004)). A single band appeared as the reaction proceeded that ran slower than the starting material when purified by PAGE. Radiolabeled c-diAMP was obtained similarly, using the protein DisA and [α-^32P]ATP as the substrate. Riboswitch RNAs were folded in the presence of radiolabeled c-di-GMP or c-diAMP and folding buffer.” for “(2004)).”

[7] = tested on: GEMM riboswitch A47G mutant (WT-110 background); test: Gel-shift Kd measurement, A47G mutant RNA; type: binding, Vibrio cholerae; conditions: for Kd: gel-shift, RNA A47G, dash = no binding
Excerpt: as §1, §2
(§6) A gel-shift assay, which directly measures c-di-GMP binding to the GEMM RNA (FIG. 3A, B), was developed in order to test biochemical predictions resulting from the GEMM riboswitch structure. Specifically, radiolabeled c-di-GMP was incubated with the riboswitch and the RNA bound ligand was separated from the free on a native polyacrylamide gel.
as §5, with “A natural GEMM sequence has been identified that lacks a C at position 92, but instead has a C at position 93. This RNA can bind c-di-GMP with an affinity of approximately 1 uM.” left out

GEMM riboswitch = conditions: Sudarsan et al. 2008; read-out: affinity; cited from earlier work
[8] = tested on: GEMM riboswitch G20A mutant (WT-110 background); test: Gel-shift Kd measurement, G20A mutant RNA; type: binding, Vibrio cholerae
Excerpt: as §3, §4

[9] = target: GEMM riboswitch Vc2 91 with a U1A binding loop (WT-U1A); test: Gel-shift Kd measurement, WT-U1A RNA (Vc2 91 with a U1A binding loop); set-up: species or system Vibrio cholerae
Excerpt: as §3, with “(2004)). A single band appeared as the reaction proceeded that ran slower than the starting material when purified by PAGE. Radiolabeled c-diAMP was obtained similarly, using the protein DisA and [α-^32P]ATP as the substrate. Riboswitch RNAs were folded in the presence of radiolabeled c-di-GMP or c-diAMP and folding buffer.” for “(2004)).”

[10] = tested on: GEMM riboswitch C92U mutant (WT-110 background); test: Gel-shift Kd measurement, C92U mutant RNA; type: binding, Vibrio cholerae; conditions: for Kd / binding (in words): gel-shift; for Kd: RNA C92U, dash = no binding; for binding (in words): C92U RNA
Excerpt: as §1, §2, §6, §5

[11] = tested on: GEMM riboswitch C92 to A mutant (WT-110 background); test: Gel-shift affinity measurement, C92A mutant RNA; type: binding, Vibrio cholerae
Excerpt: as §3, §4

[12] = tested on: GEMM riboswitch C92 to G mutant (WT-110 background); test: Gel-shift affinity measurement, C92G mutant RNA; type: binding, Vibrio cholerae
Excerpt: as §3, §4

[13] = target: known c-di-GMP binding proteins; conditions: range from 50 nM to several micromolar; Hengge 2009; read-out: binding affinity; cited from earlier work
[14] = target: GEMM riboswitch Vc2 110 (WT-110); test: Gel-shift Kd measurement, WT-110 RNA; type: binding, Vibrio cholerae; conditions: for Kd / binding (in words): gel-shift; for Kd: radiolabeled ligand, RNA WT-110, dash = no binding
Excerpt: as §1, §2, §6
This assay was used to measure a binding constant for the crystallized RNA and also to verify that this method gave the Kd measurements similar to what had been fond using in-line probing. To validate the method, Vc2 110 was used and found to have a Kd of ˜7 nM. This value agrees well with affinities obtained previously by in-line probing for this same sequence (Sudarsan, N. et al. Riboswitches in eubacteria sense the second messenger cyclic di-GMP. Science 321, 411-3). A RNA corresponding to the crystallization construct with no U1A binding loop (Vc2 91) was then tested. […] The RNA used in the crystallographic studies (Vc2 91 with a U1A binding loop) bound with a Kd slightly weaker than wild-type, but is within 9-fold of the original value.

[15] = target: natural GEMM sequence that lacks a C at position 92 but has a C at position 93; test: Binding of c-di-GMP to natural GEMM sequence with C at position 93; conditions: read-out: affinity
Protocol: as §5

[16] = tested on: GEMM riboswitch G20U mutant (WT-110 background); test: Gel-shift Kd measurement, G20U mutant RNA; type: binding, Vibrio cholerae
Excerpt: as §3, §4

Nc1ncnc2c1ncn2[C@@H]1O[C@@H]2COP(=O)(O)O[C@H]3[C@@H](O)[C@H](n4cnc5c(N)ncnc54)O[C@@H]3COP(=O)(O)O[C@H]2[C@H]1O [c-di-AMP, cyclic diadenosine monophosphate]
bound c-di-AMP better than c-di-GMP ([1]; C92U/G20A double mutant): approximately 6 fold | Kd [1]: 540 ± 29 nM

Nc1nc2c(ncn2[C@@H]2O[C@@H]3COP(=O)(O)O[C@H]4[C@@H](O)[C@H](n5cnc6c(=O)[nH]c(N)nc65)O[C@@H]4COP(=O)(O)O[C@H]3[C@H]2O)c(=O)[nH]1 [c-di-GMP, cyclic diguanosine monophosphate]
decrease in binding affinity ([2]; A47 mutated to U vs wild-type): approximately 1000 fold | Kd ([2]; gel-shift, RNA A47U, dash = no binding): 3500 ± 520 nM | reduction in affinity ([3]; G20C vs wild-type): 2 fold | effect of mutation on affinity (in words) ([3]; G20 to C): maintains approximately wild-type affinity | Kd ([3]; gel-shift, RNA G20C, dash = no binding): 13 ± 1.2 nM | decrease in binding affinity ([4]; A47 mutated to C vs wild-type): approximately 1000 fold | Kd ([4]; gel-shift, RNA A47C, dash = no binding): 8500 ± 3000 nM | affinity (in words) [5]: all affinity for c-di-GMP is lost | Kd [6]: 6.4 ± 2.8 nM | decrease in binding affinity ([7]; A47 mutated to G vs wild-type): approximately 1000 fold | Kd [7]: 4200 ± 1700 nM | Kd (GEMM riboswitch): ~1 nM | effect of mutation on affinity (in words) ([8]; G20 to A): maintains approximately wild-type affinity | Kd ([8]; gel-shift, RNA G20A, dash = no binding): 4.7 ± 1.3 nM | Kd weaker than wild-type ([9]; Vc2 91 with U1A binding loop vs original value): ≤ 9 fold | Kd ([9]; gel-shift, radiolabeled ligand, RNA WT-U1A, dash = no binding seen): 55 ± 14 nM | Kd [1]: 3200 ± 600 nM | loss in affinity ([10]; C92U vs wild-type, c-di-GMP): 6 fold | Kd [10]: 43 ± 19 nM | effect of mutation on affinity (in words) [11]: reduces affinity for c-di-GMP substantially | effect of mutation on affinity (in words) [12]: reduces affinity for c-di-GMP substantially | Kd [13]: ≥ 50 nM | Kd [14]: 7.4 ± 2.4 nM | Kd [15]: ~1000 nM | loss in affinity ([16]; G20U vs wild-type): approximately 45 fold | Kd ([16]; gel-shift, RNA G20U, dash = no binding): 330 ± 150 nM

Nc1nc2c(ncn2[C@@H]2O[C@H](COP(=O)(O)O[C@H]3[C@@H](O)[C@H](n4cnc5c(N)ncnc54)O[C@@H]3COP(=O)(O)O)[C@@H](O)[C@H]2O)c(=O)[nH]1 [pApG]
binding (in words) [10]: does not bind

Nc1nc2c(ncn2[C@@H]2O[C@H](COP(=O)(O)O)[C@@H](OP(=O)(O)OC[C@H]3O[C@@H](n4cnc5c(N)ncnc54)[C@H](O)[C@@H]3O)[C@H]2O)c(=O)[nH]1 [pGpA]
affinity lower than that of the wild-type RNA for pGpG ([10]; C92U RNA with pGpA vs wild-type RNA with pGpG): approximately 27 fold | binding (in words) [10]: binding was observed | Kd [10]: 16000 ± 5200 nM | binding (in words) ([14]; wild-type sequence): not

Nc1nc2c(ncn2[C@@H]2O[C@H](COP(=O)(O)O[C@H]3[C@@H](O)[C@H](n4cnc5c(=O)[nH]c(N)nc54)O[C@@H]3COP(=O)(O)O)[C@@H](O)[C@H]2O)c(=O)[nH]1 [pGpG]
binds the linear form better than c-di-GMP ([7]; A47G, pGpG vs c-di-GMP): 3 fold | Kd [7]: 1400 ± 120 nM | binding (in words) [10]: does not bind | Kd [14]: 490 ± 150 nM | binding (in words) ([14]; wild-type sequence): binds | affinity lower than that of the cyclic ligand ([14]; wild-type sequence, pGpG vs c-di-GMP): approximately 66 fold
